In publication PMC549391 (Nucleic Acids Research, 2005):

Target: T1, ribonuclease III (RNase III) (Escherichia coli, UniProt P0A7Y0)
T1 sequence (P0A7Y0 1-226): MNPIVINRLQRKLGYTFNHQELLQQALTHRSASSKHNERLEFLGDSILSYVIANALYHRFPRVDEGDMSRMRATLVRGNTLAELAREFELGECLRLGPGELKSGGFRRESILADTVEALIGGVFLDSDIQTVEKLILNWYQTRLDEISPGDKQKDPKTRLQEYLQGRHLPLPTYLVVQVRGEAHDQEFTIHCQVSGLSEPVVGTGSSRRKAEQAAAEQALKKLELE
Test: cleavage of […]-labeled R1.[…] RNA by purified RNase III, gel assay, […] Mg2+
Format: biochemical

Work on `O=C1Cc2ccccc2C(=O)N1O` [compound 1, 2-hydroxy-4H-isoquinoline-1,3-dione] yielded an IC50 of 14 ± 2 µM.
